Data published in patent US8598365B2, “Herbicides” (Syngenta Limited, priority 2007, dated 2013).

Test system: Alopecurus myosuroides (ALOMY)
Test: Example A pre-emergence herbicidal activity
Assay type: in vivo
Conditions: rate 250 g/ha, evaluated 19 or 20 days later
Protocol: (§1) Seeds of a variety of test species were sown in standard soil in pots. After cultivation for one day (pre-emergence) or after 10 days cultivation (post-emergence) under controlled conditions in a glasshouse, the plants were sprayed with an aqueous spray solution derived from the formulation of the technical active ingredient in 0.6 ml acetone and 45 ml formulation solution containing 10.6% Emulsogen EL (Registry number 61791-12-6), 42.2% N-methylpyrrolidone, 42.2% dipropylene glycol monomethyl ether (Registry number 34590-94-8) and 0.2% X-77 (Registry number 11097-66-8). The test plants were then grown in a greenhouse under optimum conditions until, 14 or 15 days later for post-emergence and 19 or 20 days for pre-emergence, the test was evaluated (100=total damage to plant; 0=no damage to plant). Alopecurus myosuroides (ALOMY), Avena fatua (AVEFA), Lolium perenne (LOLPE), Setaria faberi (SETFA), Digitaria sanguinalis (DIGSA), Echinochloa crus-galli (ECHCG)

Row | Compound | Pre-Emergence Activity ALOMY (100=total damage to plant; 0=no damage to plant)
1 | CCc1sc(-c2ccc(Cl)cc2)nc1C1C(=O)[C@@H]2CC[C@@H](C2)C1=O (some centres unmarked) [Compound T19, 3-[2-(4-chlorophenyl)-5-ethylthiazol-4-yl]bicyclo[3.2.1]octane-2,4-dione] | 100
2 | COc1ccc(-c2nc(C3C(=O)[C@@H]4CC[C@@H](C4)C3=O)c(C)s2)cn1 (some centres unmarked) [Compound T18] | 0
3 | Cc1sc(-c2ccc(Br)cc2)nc1C1C(=O)[C@@H]2CC[C@@H](C2)C1=O (some centres unmarked) [Compound T15] | 90
4 | Cc1sc(-c2ccc(Cl)nc2)nc1C1C(=O)[C@@H]2CC[C@@H](C2)C1=O (some centres unmarked) [Compound T16] | 10
5 | Cc1sc(-c2ccc(Cl)cc2)cc1C1C(=O)[C@@H]2CC[C@@H](C2)C1=O (some centres unmarked) [Compound T23] | 30

Test system: Avena fatua (AVEFA)
Test: Example A pre-emergence herbicidal activity
Assay type: in vivo
Conditions: rate 250 g/ha, evaluated 19 or 20 days later
Protocol: as §1

Row | Compound | Pre-Emergence Activity AVEFA (100=total damage to plant; 0=no damage to plant)
6 | CCc1sc(-c2ccc(Cl)cc2)nc1C1C(=O)[C@@H]2CC[C@@H](C2)C1=O (some centres unmarked) [Compound T19, 3-[2-(4-chlorophenyl)-5-ethylthiazol-4-yl]bicyclo[3.2.1]octane-2,4-dione] | 100
7 | COc1ccc(-c2nc(C3C(=O)[C@@H]4CC[C@@H](C4)C3=O)c(C)s2)cn1 (some centres unmarked) [Compound T18] | 0
8 | Cc1sc(-c2ccc(Cl)nc2)nc1C1C(=O)[C@@H]2CC[C@@H](C2)C1=O (some centres unmarked) [Compound T16] | 20
9 | Cc1sc(-c2ccc(Cl)cc2)cc1C1C(=O)[C@@H]2CC[C@@H](C2)C1=O (some centres unmarked) [Compound T23] | 50

Test system: Digitaria sanguinalis (DIGSA)
Test: Example A pre-emergence herbicidal activity
Assay type: in vivo
Conditions: rate 250 g/ha, evaluated 19 or 20 days later
Protocol: as §1

Row | Compound | Pre-Emergence Activity DIGSA (100=total damage to plant; 0=no damage to plant)
10 | CCc1sc(-c2ccc(Cl)cc2)nc1C1C(=O)[C@@H]2CC[C@@H](C2)C1=O (some centres unmarked) [Compound T19, 3-[2-(4-chlorophenyl)-5-ethylthiazol-4-yl]bicyclo[3.2.1]octane-2,4-dione] | 100
11 | COc1ccc(-c2nc(C3C(=O)[C@@H]4CC[C@@H](C4)C3=O)c(C)s2)cn1 (some centres unmarked) [Compound T18] | 30
12 | Cc1sc(-c2ccc(Br)cc2)nc1C1C(=O)[C@@H]2CC[C@@H](C2)C1=O (some centres unmarked) [Compound T15] | 100
13 | Cc1sc(-c2ccc(Cl)nc2)nc1C1C(=O)[C@@H]2CC[C@@H](C2)C1=O (some centres unmarked) [Compound T16] | 80
14 | Cc1sc(-c2ccc(Cl)cc2)cc1C1C(=O)[C@@H]2CC[C@@H](C2)C1=O (some centres unmarked) [Compound T23] | 0

Test system: Echinochloa crus-galli (ECHCG)
Test: Example A pre-emergence herbicidal activity
Assay type: in vivo
Conditions: rate 250 g/ha, evaluated 19 or 20 days later
Protocol: as §1

Row | Compound | Pre-Emergence Activity ECHCG (100=total damage to plant; 0=no damage to plant)
15 | CCc1sc(-c2ccc(Cl)cc2)nc1C1C(=O)[C@@H]2CC[C@@H](C2)C1=O (some centres unmarked) [Compound T19, 3-[2-(4-chlorophenyl)-5-ethylthiazol-4-yl]bicyclo[3.2.1]octane-2,4-dione] | 100
16 | COc1ccc(-c2nc(C3C(=O)[C@@H]4CC[C@@H](C4)C3=O)c(C)s2)cn1 (some centres unmarked) [Compound T18] | 20
17 | Cc1sc(-c2ccc(Br)cc2)nc1C1C(=O)[C@@H]2CC[C@@H](C2)C1=O (some centres unmarked) [Compound T15] | 100
18 | Cc1sc(-c2ccc(Cl)nc2)nc1C1C(=O)[C@@H]2CC[C@@H](C2)C1=O (some centres unmarked) [Compound T16] | 70
19 | Cc1sc(-c2ccc(Cl)cc2)cc1C1C(=O)[C@@H]2CC[C@@H](C2)C1=O (some centres unmarked) [Compound T23] | 0

Test system: Lolium perenne (LOLPE)
Test: Example A pre-emergence herbicidal activity
Assay type: in vivo
Conditions: rate 250 g/ha, evaluated 19 or 20 days later
Protocol: as §1

Row | Compound | Pre-Emergence Activity LOLPE (100=total damage to plant; 0=no damage to plant)
20 | CCc1sc(-c2ccc(Cl)cc2)nc1C1C(=O)[C@@H]2CC[C@@H](C2)C1=O (some centres unmarked) [Compound T19, 3-[2-(4-chlorophenyl)-5-ethylthiazol-4-yl]bicyclo[3.2.1]octane-2,4-dione] | 100
21 | COc1ccc(-c2nc(C3C(=O)[C@@H]4CC[C@@H](C4)C3=O)c(C)s2)cn1 (some centres unmarked) [Compound T18] | 0
22 | Cc1sc(-c2ccc(Br)cc2)nc1C1C(=O)[C@@H]2CC[C@@H](C2)C1=O (some centres unmarked) [Compound T15] | 100
23 | Cc1sc(-c2ccc(Cl)nc2)nc1C1C(=O)[C@@H]2CC[C@@H](C2)C1=O (some centres unmarked) [Compound T16] | 20
24 | Cc1sc(-c2ccc(Cl)cc2)cc1C1C(=O)[C@@H]2CC[C@@H](C2)C1=O (some centres unmarked) [Compound T23] | 0

Test system: Setaria faberi (SETFA)
Test: Example A pre-emergence herbicidal activity
Assay type: in vivo
Conditions: rate 250 g/ha, evaluated 19 or 20 days later
Protocol: as §1

Row | Compound | Pre-Emergence Activity SETFA (100=total damage to plant; 0=no damage to plant)
25 | CCc1sc(-c2ccc(Cl)cc2)nc1C1C(=O)[C@@H]2CC[C@@H](C2)C1=O (some centres unmarked) [Compound T19, 3-[2-(4-chlorophenyl)-5-ethylthiazol-4-yl]bicyclo[3.2.1]octane-2,4-dione] | 100
26 | COc1ccc(-c2nc(C3C(=O)[C@@H]4CC[C@@H](C4)C3=O)c(C)s2)cn1 (some centres unmarked) [Compound T18] | 20
27 | Cc1sc(-c2ccc(Br)cc2)nc1C1C(=O)[C@@H]2CC[C@@H](C2)C1=O (some centres unmarked) [Compound T15] | 100
28 | Cc1sc(-c2ccc(Cl)nc2)nc1C1C(=O)[C@@H]2CC[C@@H](C2)C1=O (some centres unmarked) [Compound T16] | 80
29 | Cc1sc(-c2ccc(Cl)cc2)cc1C1C(=O)[C@@H]2CC[C@@H](C2)C1=O (some centres unmarked) [Compound T23] | 0

Test system: Alopecurus myosuroides (ALOMY)
Test: Example A post-emergence herbicidal activity
Assay type: in vivo
Conditions: rate 125 g/ha, evaluated 14 or 15 days later
Protocol: as §1

Row | Compound | Post-Emergence Activity ALOMY (100=total damage to plant; 0=no damage to plant)
30 | CCc1sc(-c2ccc(Cl)cc2)nc1C1C(=O)[C@@H]2CC[C@@H](C2)C1=O (some centres unmarked) [Compound T19, 3-[2-(4-chlorophenyl)-5-ethylthiazol-4-yl]bicyclo[3.2.1]octane-2,4-dione] | 100
31 | COc1ccc(-c2nc(C3C(=O)[C@@H]4CC[C@@H](C4)C3=O)c(C)s2)cn1 (some centres unmarked) [Compound T18] | 40
32 | Cc1sc(-c2ccc(Br)cc2)nc1C1C(=O)[C@@H]2CC[C@@H](C2)C1=O (some centres unmarked) [Compound T15] | 90
33 | Cc1sc(-c2ccc(Cl)nc2)nc1C1C(=O)[C@@H]2CC[C@@H](C2)C1=O (some centres unmarked) [Compound T16] | 20
34 | Cc1sc(-c2ccc(Cl)cc2)cc1C1C(=O)[C@@H]2CC[C@@H](C2)C1=O (some centres unmarked) [Compound T23] | 80

Test system: Avena fatua (AVEFA)
Test: Example A post-emergence herbicidal activity
Assay type: in vivo
Conditions: rate 125 g/ha, evaluated 14 or 15 days later
Protocol: as §1

Row | Compound | Post-Emergence Activity AVEFA (100=total damage to plant; 0=no damage to plant)
35 | CCc1sc(-c2ccc(Cl)cc2)nc1C1C(=O)[C@@H]2CC[C@@H](C2)C1=O (some centres unmarked) [Compound T19, 3-[2-(4-chlorophenyl)-5-ethylthiazol-4-yl]bicyclo[3.2.1]octane-2,4-dione] | 100
36 | COc1ccc(-c2nc(C3C(=O)[C@@H]4CC[C@@H](C4)C3=O)c(C)s2)cn1 (some centres unmarked) [Compound T18] | 30
37 | Cc1sc(-c2ccc(Br)cc2)nc1C1C(=O)[C@@H]2CC[C@@H](C2)C1=O (some centres unmarked) [Compound T15] | 90
38 | Cc1sc(-c2ccc(Cl)nc2)nc1C1C(=O)[C@@H]2CC[C@@H](C2)C1=O (some centres unmarked) [Compound T16] | 40
39 | Cc1sc(-c2ccc(Cl)cc2)cc1C1C(=O)[C@@H]2CC[C@@H](C2)C1=O (some centres unmarked) [Compound T23] | 70

Test system: Digitaria sanguinalis (DIGSA)
Test: Example A post-emergence herbicidal activity
Assay type: in vivo
Conditions: rate 125 g/ha, evaluated 14 or 15 days later
Protocol: as §1

Row | Compound | Post-Emergence Activity DIGSA (100=total damage to plant; 0=no damage to plant)
40 | CCc1sc(-c2ccc(Cl)cc2)nc1C1C(=O)[C@@H]2CC[C@@H](C2)C1=O (some centres unmarked) [Compound T19, 3-[2-(4-chlorophenyl)-5-ethylthiazol-4-yl]bicyclo[3.2.1]octane-2,4-dione] | 100
41 | COc1ccc(-c2nc(C3C(=O)[C@@H]4CC[C@@H](C4)C3=O)c(C)s2)cn1 (some centres unmarked) [Compound T18] | 60
42 | Cc1sc(-c2ccc(Br)cc2)nc1C1C(=O)[C@@H]2CC[C@@H](C2)C1=O (some centres unmarked) [Compound T15] | 100
43 | Cc1sc(-c2ccc(Cl)nc2)nc1C1C(=O)[C@@H]2CC[C@@H](C2)C1=O (some centres unmarked) [Compound T16] | 70
44 | Cc1sc(-c2ccc(Cl)cc2)cc1C1C(=O)[C@@H]2CC[C@@H](C2)C1=O (some centres unmarked) [Compound T23] | 90

Test system: Echinochloa crus-galli (ECHCG)
Test: Example A post-emergence herbicidal activity
Assay type: in vivo
Conditions: rate 125 g/ha, evaluated 14 or 15 days later
Protocol: as §1

Row | Compound | Post-Emergence Activity ECHCG (100=total damage to plant; 0=no damage to plant)
45 | CCc1sc(-c2ccc(Cl)cc2)nc1C1C(=O)[C@@H]2CC[C@@H](C2)C1=O (some centres unmarked) [Compound T19, 3-[2-(4-chlorophenyl)-5-ethylthiazol-4-yl]bicyclo[3.2.1]octane-2,4-dione] | 100
46 | COc1ccc(-c2nc(C3C(=O)[C@@H]4CC[C@@H](C4)C3=O)c(C)s2)cn1 (some centres unmarked) [Compound T18] | 50
47 | Cc1sc(-c2ccc(Br)cc2)nc1C1C(=O)[C@@H]2CC[C@@H](C2)C1=O (some centres unmarked) [Compound T15] | 70
48 | Cc1sc(-c2ccc(Cl)nc2)nc1C1C(=O)[C@@H]2CC[C@@H](C2)C1=O (some centres unmarked) [Compound T16] | 50
49 | Cc1sc(-c2ccc(Cl)cc2)cc1C1C(=O)[C@@H]2CC[C@@H](C2)C1=O (some centres unmarked) [Compound T23] | 90

Test system: Lolium perenne (LOLPE)
Test: Example A post-emergence herbicidal activity
Assay type: in vivo
Conditions: rate 125 g/ha, evaluated 14 or 15 days later
Protocol: as §1

Row | Compound | Post-Emergence Activity LOLPE (100=total damage to plant; 0=no damage to plant)
50 | CCc1sc(-c2ccc(Cl)cc2)nc1C1C(=O)[C@@H]2CC[C@@H](C2)C1=O (some centres unmarked) [Compound T19, 3-[2-(4-chlorophenyl)-5-ethylthiazol-4-yl]bicyclo[3.2.1]octane-2,4-dione] | 80
51 | COc1ccc(-c2nc(C3C(=O)[C@@H]4CC[C@@H](C4)C3=O)c(C)s2)cn1 (some centres unmarked) [Compound T18] | 20
52 | Cc1sc(-c2ccc(Br)cc2)nc1C1C(=O)[C@@H]2CC[C@@H](C2)C1=O (some centres unmarked) [Compound T15] | 50
53 | Cc1sc(-c2ccc(Cl)nc2)nc1C1C(=O)[C@@H]2CC[C@@H](C2)C1=O (some centres unmarked) [Compound T16] | 20
54 | Cc1sc(-c2ccc(Cl)cc2)cc1C1C(=O)[C@@H]2CC[C@@H](C2)C1=O (some centres unmarked) [Compound T23] | 70

Test system: Setaria faberi (SETFA)
Test: Example A post-emergence herbicidal activity
Assay type: in vivo
Conditions: rate 125 g/ha, evaluated 14 or 15 days later
Protocol: as §1

Row | Compound | Post-Emergence Activity SETFA (100=total damage to plant; 0=no damage to plant)
55 | CCc1sc(-c2ccc(Cl)cc2)nc1C1C(=O)[C@@H]2CC[C@@H](C2)C1=O (some centres unmarked) [Compound T19, 3-[2-(4-chlorophenyl)-5-ethylthiazol-4-yl]bicyclo[3.2.1]octane-2,4-dione] | 100
56 | COc1ccc(-c2nc(C3C(=O)[C@@H]4CC[C@@H](C4)C3=O)c(C)s2)cn1 (some centres unmarked) [Compound T18] | 60
57 | Cc1sc(-c2ccc(Br)cc2)nc1C1C(=O)[C@@H]2CC[C@@H](C2)C1=O (some centres unmarked) [Compound T15] | 100
58 | Cc1sc(-c2ccc(Cl)nc2)nc1C1C(=O)[C@@H]2CC[C@@H](C2)C1=O (some centres unmarked) [Compound T16] | 60
59 | Cc1sc(-c2ccc(Cl)cc2)cc1C1C(=O)[C@@H]2CC[C@@H](C2)C1=O (some centres unmarked) [Compound T23] | 100
